Like-named read-outs stand apart in the source and are kept apart here.
Experiments:
[1] = molecular target: T1, Full length wild-type cereblon CRBN (Homo sapiens, UniProt Q96SW2); test: Fluorescence polarization (FP) assay indicating cereblon binding
T1 construct: Full length wild-type cereblon CRBN (80.0 nM, 10 μL) was incubated in assay buffer
Outline: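 CRBN (80.0 nM) preincubated 30 min at RT with compound (300–0.937 or 3000–9.3 nM, 12 points) in 20 mM HEPES pH 8.0, 150 NaCl, 0.5 mM TCEP, 0.05% Tween 20. Cy5-type thalidomide-linked probe added at 5 nM final; FP read after 12 h (ex 590/em 675 nm), normalized to DMSO, IC50 derived.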

GSPT1 = GSPT1 (Homo sapiens, UniProt P15170+Q96SW2); test: Immunofluorescence assay for GSPT1 degradation in CAL-Si cells; type: cell-based; design: CAL-Si cells were purchased from DSMZ (cat. Number ACC302); host or cells: CAL-Si (CAL-51) cells; conditions: 6 hours treatment
GSPT1, sequence (P15170 whole entry): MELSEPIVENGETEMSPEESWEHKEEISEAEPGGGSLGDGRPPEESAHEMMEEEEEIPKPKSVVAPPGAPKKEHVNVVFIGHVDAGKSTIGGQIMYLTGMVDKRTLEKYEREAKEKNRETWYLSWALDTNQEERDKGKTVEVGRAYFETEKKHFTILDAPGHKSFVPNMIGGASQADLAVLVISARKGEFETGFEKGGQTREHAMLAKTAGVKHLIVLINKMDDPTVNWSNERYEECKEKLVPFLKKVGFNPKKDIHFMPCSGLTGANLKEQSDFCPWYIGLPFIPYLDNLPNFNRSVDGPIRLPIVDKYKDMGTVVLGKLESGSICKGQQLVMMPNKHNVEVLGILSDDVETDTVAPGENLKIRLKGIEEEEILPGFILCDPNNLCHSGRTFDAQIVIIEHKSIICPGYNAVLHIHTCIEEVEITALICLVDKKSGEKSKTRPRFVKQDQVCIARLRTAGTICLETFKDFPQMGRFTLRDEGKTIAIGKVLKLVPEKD
GSPT1, sequence (Q96SW2 whole entry): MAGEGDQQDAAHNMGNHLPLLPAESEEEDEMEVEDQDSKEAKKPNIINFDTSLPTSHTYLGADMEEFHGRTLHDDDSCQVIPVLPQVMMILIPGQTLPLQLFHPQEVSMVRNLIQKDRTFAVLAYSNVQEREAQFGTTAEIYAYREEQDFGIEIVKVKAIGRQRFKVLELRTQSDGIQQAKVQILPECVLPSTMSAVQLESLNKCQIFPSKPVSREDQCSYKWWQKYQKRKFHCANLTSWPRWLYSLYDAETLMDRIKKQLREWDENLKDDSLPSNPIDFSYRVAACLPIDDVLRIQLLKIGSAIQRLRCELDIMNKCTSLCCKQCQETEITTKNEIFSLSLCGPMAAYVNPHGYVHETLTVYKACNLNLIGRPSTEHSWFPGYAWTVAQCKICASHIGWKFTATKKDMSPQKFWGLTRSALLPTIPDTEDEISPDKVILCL
GSPT1, sequence (Q16531 whole entry partner): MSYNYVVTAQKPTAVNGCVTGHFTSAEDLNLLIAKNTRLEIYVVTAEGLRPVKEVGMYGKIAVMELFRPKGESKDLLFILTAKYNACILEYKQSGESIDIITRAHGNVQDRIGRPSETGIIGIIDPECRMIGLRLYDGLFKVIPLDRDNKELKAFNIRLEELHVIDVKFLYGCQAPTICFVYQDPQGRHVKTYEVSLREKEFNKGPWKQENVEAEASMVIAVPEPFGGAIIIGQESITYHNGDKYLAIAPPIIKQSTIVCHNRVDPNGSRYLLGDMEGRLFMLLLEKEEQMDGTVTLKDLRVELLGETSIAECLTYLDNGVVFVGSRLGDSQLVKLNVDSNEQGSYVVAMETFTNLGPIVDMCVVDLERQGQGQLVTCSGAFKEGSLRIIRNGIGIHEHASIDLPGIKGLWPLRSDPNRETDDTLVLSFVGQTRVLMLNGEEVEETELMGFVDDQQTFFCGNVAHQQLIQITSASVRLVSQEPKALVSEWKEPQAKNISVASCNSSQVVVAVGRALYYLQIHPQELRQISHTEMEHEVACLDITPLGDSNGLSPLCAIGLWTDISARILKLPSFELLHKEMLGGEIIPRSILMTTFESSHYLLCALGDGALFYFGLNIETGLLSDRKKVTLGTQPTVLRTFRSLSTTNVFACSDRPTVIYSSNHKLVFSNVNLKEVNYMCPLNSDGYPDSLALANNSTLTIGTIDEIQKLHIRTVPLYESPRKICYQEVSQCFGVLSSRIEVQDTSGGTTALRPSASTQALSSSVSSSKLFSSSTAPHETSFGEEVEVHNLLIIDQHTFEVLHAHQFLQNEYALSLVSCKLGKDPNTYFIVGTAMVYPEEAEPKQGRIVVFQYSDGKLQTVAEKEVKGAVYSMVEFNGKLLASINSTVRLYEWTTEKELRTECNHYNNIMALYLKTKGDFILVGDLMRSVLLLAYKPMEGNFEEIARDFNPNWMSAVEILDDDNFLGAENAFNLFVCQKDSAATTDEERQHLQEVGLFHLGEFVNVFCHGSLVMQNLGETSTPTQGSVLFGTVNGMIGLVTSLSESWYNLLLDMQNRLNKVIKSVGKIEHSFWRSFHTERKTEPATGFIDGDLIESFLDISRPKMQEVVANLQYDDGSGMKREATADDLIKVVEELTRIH
Outline: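 CAL-Si cells exposed 6 h to compound serial dilutions (30 μM to 0.1 nM), then fixed and immunostained for GSPT1 with DAPI/phalloidin counterstain. Per-cell mean GSPT1 fluorescence from high-content imaging, normalized to controls; DC50 by non-linear regression.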

[2] = cereblon binding, CRBN 80.0 nM, probe 5 nM, FP read after 12 hours, read-out: rFP IC50
[3] = fluorescence polarization assay, read-out: IC50 value (cereblon binding)
[4] = read-out: Code: activity for GSPT1 degradation (DC50)
[5] = GSPT1 degradation, read-out: DC50

T1 sequence (Q96SW2 whole entry): as the sequence (Q96SW2 whole entry) above

| Compound | IC50 [1, 2] | IC50 [1, 3] | DC50 (GSPT1; [4]) | DC50 (GSPT1; [5]) |
| --- | --- | --- | --- | --- |
| Cc1ccc(NC(=O)CCc2ccc3c(c2)C(=O)N(C2CCC(=O)NC2=O)C3)cc1Cl (centres unmarked) [Compound 1] | ≤ 500 nM | < 1100 nM | ≤ 30 nM | 16 nM |
| Cc1c(Cl)cc(NC(=O)CCc2ccc3c(c2)C(=O)N(C2CCC(=O)NC2=O)C3)cc1CN1CCOCC1 (centres unmarked) [Compound 2] | ≤ 500 nM | < 1100 nM | ≤ 30 nM | 6 nM |
